The values that follow are results of earlier work, collected in patent US6756057B2, “Amoxicillin and potassium clavulanate dosage form” (Beecham Pharmaceuticals (pte) Limited, priority 2000, dated 2004).

Structures are written as SMILES.

For this data set the following is noted: in vivo.

Turning to `CC1(C)S[C@@H]2[C@H](NC(=O)[C@H](N)c3ccc(O)cc3)C(=O)N2[C@H]1C(=O)O` [amoxicillin], the elimination half-life entry was “about 1.3 hours”.
